Patent publication US20220354119A1, “COMPOSITION OF A RHEOLOGY MODIFIER AND DIHALOHYDANTOIN” (Rohm and Haas Company, priority 2019, published 2022)
Entries after “also recorded” stand apart in the source; their conditions may differ. Where a name gives a salt, the structure may show the parent alone.

Legend:
[1] = Heat age stability of HEUR-biocide formulation (appearance after heat aging); assay type: physicochemical; settings: biocide admixed with HEUR rheology modifier (RM-2020E or RM-8W); oven 50° C. for 2 weeks
Description: A number of biocides were admixed with ACRYSOL™ RM-2020E Rheology Modifier (RM-2020E, A Trademark of The Dow Chemical Company or Its Affiliates) and ACRYSOL™ RM-8W (RM-8W). In addition to testing biocides admixed with RM-2020E or RM-8W as-delivered, acid was also added to the rheology modifiers to lower the pH to approximately 4.5. Samples prepared with the biocide didecyldimethylammonium chloride were only tested when RM-2020E and RM-8W were prepared with 10-15% surfactant in the composition. The compositions were heat-aged in an oven maintained at 50° C. for 2 weeks. Heating aging was also carried out for RM-2020E in the absence of any biocide. If the composition failed the heat aging test, it was not tested for efficacy.
All heat aged samples were compared against a reference HEUR (RM-2020E or
The pass/fail criterion for biocide efficacy was determined by the formation of less than 1×10^4 colony forming units per mL (CFU/mL) of sample tested.

[2] = test system: pool of 6 different Gram negative and Gram positive bacterial strains; experiment: Bacterial challenge test (TAUNOVATE III High Throughput testing system, MPN); assay type: cell-based; settings: 30° C., repeated challenges
Description: Efficacy of all biocides were determined as described for 1-bromo-3-chloro-5,5-dimethylhydantion. The only difference was the concentration of the biocide, which is shown as a range in Table 1.
1-Bromo-3-chloro-5,5-dimethylhydantoin (0.5% aqueous solution) was prepared by dispersing Chlorox Pool and Spa (0.25 g in 49.75 g water). Unpreserved RM-2020E thickeners were dosed with biocide and challenge tested with bacteria using the TAUNOVATE℠ III High Throughput testing system. In general, the tested biocides were calibrated for density and prepared at levels 10× higher than the target concentrations using a robotic system. For example, to target 15 ppm and 40 ppm concentrations of 1-bromo-3-chloro-5,5-dimethylhydantoin respectively, 150 ppm and 400 ppm concentrations of 1-bromo-3-chloro-5,5-dimethylhydantoin were prepared by the automated system. […]
The inoculum was prepared by making a 1:1 pool of overnight cultures of 6 different Gram negative and Gram positive bacterial strains, and then diluted 1:20 with tryptic soy broth. […] Three additional challenges were performed 7 d apart with fresh bacterial cultures and growth recovery was assessed 1 and 7 d after inoculation. […]
(TSB) with indicator. […] The MPN was calculated to determine the relative growth scale rating, which is a measure of the passing or failure of the sample for growth. […]

Row | Compound | Sample Appearance after Heat Age testing [1] | Challenge Test ([2]; 400 ppm biocide in HEUR prepared with 10-15% surfactant) | Challenge Test ([2]; 300 ppm biocide in HEUR)
1 | CC1(C)C(=O)N(Cl)C(=O)N1Br [1-bromo-3-chloro-5,5-dimethylhydantoin] | non-degradative; also recorded: unchanged | – | –
2 | CCCCCCCCCC[N+](C)(C)CCCCCCCCCC.[Cl-] [Didecyldimethylammonium chloride] | unchanged | Fail (The pass/fail criterion for biocide efficacy was determined by the formation of less than 1×10^4 colony forming units per mL (CFU/mL) of sample tested) | –
3 | CCCCCCCCCCCCNC(=N)N [Dodecylguanidine Hydrochloride] | – | – | Fail (The pass/fail criterion for biocide efficacy was determined by the formation of less than 1×10^4 colony forming units per mL (CFU/mL) of sample tested)
4 | C/C=C/C=C/C(=O)[O-].[K+] [Potassium sorbate] | Brown | – | –
5 | [Na+].[O-]c1ccccc1-c1ccccc1 [Sodium o-phenylphenolate] | White | – | –
6 | [Na+].[O-][n+]1ccccc1[S-] [Sodium pyrithione] | Bright yellow | – | –
7 | Oc1ccccc1-c1ccccc1 [o-phenylphenol] | White | – | –
8 | Zinc pyrithione | White sediment | – | –
